Assay results: publication PMC5729429, “Gimatecan exerts potent antitumor activity against gastric cancer in vitro and in vivo via AKT and MAPK signaling pathways” (Journal of Translational Medicine, 2017)
Where a name gives a salt, the structure may show the parent alone.

System: SNU-1 cells
Experiment: Annexin V-PE/7-AAD apoptosis assay (flow cytometry), SNU-1
Assay type: cell-based, human
Details: 24 h
Method: Apoptosis was measured by staining with phycoerythrin (PE)-annexin V and 7-amino-actinomycin (7-AAD) (BD Biosciences, Erembodegem, Belgium) for 15 min at room temperature in the dark, followed by flow cytometry (BD Biosciences) within 1 h. Apoptosis was analyzed with FlowJo 7.6 software (FlowJo, LLC, Ashland, Oregon).
Cells were treated with gimatecan (0–1 µM) and irinotecan (0–1 µM) for 24 h and stained with Annexin V-PE/7-AAD. Sums of percentages of early apoptosis (Q3) and late apoptosis (Q2) were calculated as the total apoptosis ratios. c, d Pro- and anti-apoptotic proteins including Bcl-2, Bak, PARP and cleaved PARP were assessed by western-blotting in SNU-1 and NCI-N87 cells. Western-blotting bands were quantified and normalized by ImageJ. […] They are left out because no substance is present, and they are also barely readable.

Structure (SMILES)	proportion of apoptotic cells (SNU-1, 1000 nM) [%]	apoptosis induced compared with controls (0–1 µM, stated generally for the GC cell lines tested)
CC[C@@]1(O)C(=O)OCc2c1cc1n(c2=O)Cc2c-1nc1ccccc1c2/C=N/OC(C)(C)C [Gimatecan, 7-t-butoxyiminomethylcamptothecin]	14.38 ± 2.11	
CCc1c2c(nc3ccc(OC(=O)N4CCC(N5CCCCC5)CC4)cc13)-c1cc3c(c(=O)n1C2)COC(=O)[C@]3(O)CC [Irinotecan, irinotecan hydrochloride]		not obvious
